The conditions of the data set: Liquid.

Where “and” joins values, the source holds several entries; their conditions need not be identical. Equal values may be shown once. ± gives the expanded uncertainty stated by the source.

On to `CCn1c2ccccc2c2ccccc21` [9-ethylcarbazole], for which the mass density (343.2 K, 101.33 kPa) is 1062.78 ± 6.6 kg/m3 and 1062.93 ± 6.6 kg/m3 and 1063.05 ± 6.6 kg/m3; the mass density (353.2 K, 101.33 kPa) was 1055.37 ± 6.4 kg/m3 and 1055.51 ± 6.4 kg/m3 and 1055.63 ± 6.4 kg/m3; the mass density (363.2 K, 101.33 kPa) is 1048.06 ± 6.3 kg/m3 and 1048.2 ± 6.3 kg/m3 and 1048.32 ± 6.3 kg/m3; the mass density (373.2 K, 101.33 kPa) is 1040.99 ± 6.1 kg/m3 and 1041.11 ± 6.1 kg/m3 and 1040.85 ± 6.1 kg/m3.

`CC1CCCCC1` [methylcyclohexane]: the mass density was 769.72 ± 8.2 kg/m3 and 769.91 ± 8.2 kg/m3 and 770.07 ± 8.2 kg/m3 (293.2 K, 101.33 kPa); 761.08 ± 8.4 kg/m3 and 761.27 ± 8.4 kg/m3 and 761.42 ± 8.4 kg/m3 (303.2 K, 101.33 kPa); 752.63 ± 8.6 kg/m3 and 752.82 ± 8.6 kg/m3 and 752.97 ± 8.6 kg/m3 (313.2 K, 101.33 kPa); 744.55 ± 8.8 kg/m3 and 744.71 ± 8.7 kg/m3 and 744.37 ± 8.8 kg/m3 (323.2 K, 101.33 kPa); 736.29 ± 8.9 kg/m3 and 736.47 ± 8.9 kg/m3 and 736.62 ± 8.9 kg/m3 (333.2 K, 101.33 kPa); 728.38 ± 9.1 kg/m3 and 728.56 ± 9.1 kg/m3 and 728.71 ± 9.1 kg/m3 (343.2 K, 101.33 kPa). For the same compound, the mass density is, setting by setting: (353.2 K, 101.33 kPa) 720.64 ± 9.3 kg/m3 and 720.82 ± 9.3 kg/m3 and 720.97 ± 9.3 kg/m3; (363.2 K, 101.33 kPa) 713.07 ± 9.4 kg/m3 and 713.24 ± 9.4 kg/m3 and 713.39 ± 9.4 kg/m3; (373.2 K, 101.33 kPa) 705.65 ± 9.6 kg/m3 and 705.82 ± 9.6 kg/m3 and 705.96 ± 9.6 kg/m3.

As to `Cc1ccccc1` [toluene], the mass density is 867.3 ± 6.3 kg/m3 and 867.61 ± 6.3 kg/m3 and 867.8 ± 6.3 kg/m3 (293.2 K); 855.63 ± 6.5 kg/m3 and 855.94 ± 6.5 kg/m3 and 856.12 ± 6.5 kg/m3 (303.2 K); 844.27 ± 6.8 kg/m3 and 844.57 ± 6.8 kg/m3 and 844.75 ± 6.8 kg/m3 (313.2 K); 833.51 ± 7 kg/m3 and 833.68 ± 7 kg/m3 and 833.21 ± 7 kg/m3 (323.2 K); 822.43 ± 7.2 kg/m3 and 822.73 ± 7.2 kg/m3 and 822.9 ± 7.2 kg/m3 (333.2 K); 811.93 ± 7.4 kg/m3 and 812.22 ± 7.4 kg/m3 and 812.39 ± 7.4 kg/m3 (343.2 K). Moreover, the mass density is, setting by setting: (353.2 K) 801.69 ± 7.6 kg/m3 and 801.98 ± 7.6 kg/m3 and 802.15 ± 7.6 kg/m3; (363.2 K) 791.71 ± 7.8 kg/m3 and 792 ± 7.8 kg/m3 and 792.16 ± 7.8 kg/m3; (373.2 K) 781.97 ± 8 kg/m3 and 782.26 ± 8 kg/m3 and 782.42 ± 8 kg/m3.

The record behind these values is the NIST ThermoML archive (doi:10.1021/acs.jced.5b00789).
